Assay results from patent US11771685B2, “Compounds for the treatment of neurological or mitochondrial diseases” (MUSC FOUNDATION FOR RESEARCH DEVELOPMENT, priority 2018, dated 2023).
Read-outs that look alike come from different tables or passages of the source.

Assays:
[1] = In vivo pharmacokinetics in CD-1 mice; design: species or system mouse; settings: for Cmax: read-out: Cmax
Description: PK studies on 3 and 25 were carried out in CD-1 mice. Three males were dosed via oral gavage needle for oral administration at 20 mg/kg (10 mL/kg) or via intravenous administration at 5 mg/kg (10 mL/kg). Blood samples were taken at time intervals between 5 min and 24 hr from each animal.
The PK studies of 1 were performed by WuXi AppTec and PK studies of 3 and 25 were performed by Touchstone Biosciences (Peng et al., 2006b; Peng et al., 2001; Peng et al., 2006a; Peng et al., 2009). Male CD-1 mice were fed a standard laboratory rodent diet and housed in individual cages on a 12 hr light and 12 hr dark cycle with room temperature maintained at 22±3° C. and relative humidity at 50±20%. Animals were typically fasted overnight before dosing, with food returned after the 6 hr blood samples were obtained. Water was provided ad libitum throughout the study. The dosing solution of each test compound was prepared in a desired oral or intravenous formulation. Three to four animals were dosed via gavage needle for oral administration at 10-20 mg/kg (10-20 mL/kg) or via tail vein injection for IV administration at 2-5 mg/kg (2-5 mL/kg). […] Fluid replacement (1.5 mL of 0.9% NaCl injection, USP) was administered subcutaneously once after the 2 hr blood sampling. Blood samples were collected in BD Microtainer tubes coated with anticoagulant, placed on ice, and within 30 min, centrifuged at 15,000 g for 5 min to obtain plasma samples. All plasma samples were stored at −70° C. until analysis.
Plasma samples were prepared as follows. Three volumes of acetonitrile containing internal standard was added to one volume of plasma to precipitate proteins. Samples were centrifuged (3000 g for 10 min) and supernatant removed for analysis by LC-MS/MS. Calibration standards and quality controls were made by preparation of a 1 mg/mL stock solution and subsequently a series of working solutions in methanol:water (1:1, v/v) which were spiked into blank plasma to yield a series of calibration standard samples in the range of 1.0 ng/mL to 10 μg/mL and quality control samples at three concentration levels (low, middle and high). All incurred PK/PD plasma samples were treated identically to the calibration standards and quality control samples. LC-MS-MS analysis was performed utilizing multiple reaction monitoring for detection of characteristic ions for each drug candidate, additional related analytes and internal standard.
Plasma concentrations were measured as described above to determine a concentration vs. time profile. The area under the plasma concentration vs time curve (AUC) was calculated using the linear trapezoidal method. Fitting of the data to obtain pharmacokinetic parameters was carried out using non-compartmental analysis. Key PK parameters reported following intravenous administration are as follows: terminal half-life t1/2, initial plasma concentration C0, area under the plasma concentration vs. time curve AUC, volume of distribution at steady-state Vss, total plasma clearance CLp, and mean residence time MRT. Key PK parameters reported following extravascular administration are as follows: terminal half-life t1/2, maximum plasma concentration Cmax, time to reach maximum plasma concentration tmax, area under the plasma concentration vs. time curve AUC, mean residence time MRT, and bioavailability F. All parameters are expressed for individual animals as well as mean, standard deviation, and coefficient of variation.

[2] = tested on: PTZ-induced seizure activity in zebrafish larvae; experiment: Zebrafish PTZ-induced seizure model; assay type: in vivo
Method in brief: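 Single 7 dpf larvae per well received compound at a sub-lethal dose 1 h before PTZ (10 mM final). After 5 min plus 2 min light, movement was videotracked for 15 min; total distance traveled served as seizure measure, compared within clutch by Kruskal-Wallis/Dunn testing, with startle and morphology checks for toxicity.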

[3] = intravenous, 3 and 25 at 5 mg/kg, 5 mg/kg
[4] = male, CD-1, mouse, plasma, iv, 5 mg/kg, 3 and 25 at 5 mg/kg
[5] = male, CD-1, mouse, plasma, po, 20 mg/kg, oral 20 mg/kg, 20% DMA-40% PEG300-40% H2O
[6] = male, CD-1, mouse, plasma, po, 20 mg/kg, oral 20 mg/kg, suspension 1% Tween 80:1% carboxymethylcellulose in water
[7] = oral 20 mg/kg, 20% DMA-40% PEG300-40% H2O

For CC(C)CCOC1=CC(=O)c2ccccc2C1=O [Compound 25, 2-(Isopentyloxy)naphthalene-1,4-dione], the AUCinf/D ([1]; intravenous, 5 mg/kg) was 242 h·(ng/mL)/(mg/kg), the tlast ([1]; intravenous, 5 mg/kg) was 24 h and the CL [1, 3] was 69 mL/min/kg. It also gave a Vss [1, 3] of 13 L/kg, a clearance ([1]; male, CD-1, mouse, plasma, iv, 5 mg/kg, intravenous, 3 and 25 at 5 mg/kg, read-out: CL) of 68.8 mL/min/kg and a Vd ([1]; male, CD-1, mouse, plasma, iv, 5 mg/kg, intravenous, 3 and 25 at 5 mg/kg, read-out: Vss) of 13.2 L/kg. For the same compound, the AUC(0-inf) [1, 4] was 1210 ng·h/mL, the AUC(0-t) [1, 4] was 1200 ng·h/mL and the MRT inf [1, 4] was 3.2 h. The half-life [1, 4] was 4.31 h, the AUC(0-inf) [1, 5] was 11500 ng·h/mL and the AUC(0-t) [1, 5] was 7360 ng·h/mL. The MRT inf [1, 5] was 7.84 h, the Tmax [1, 5] was 0.333 h and the half-life [1, 5] was 5.56 h. The Cmax [1, 5] was 2080 ng/mL, the AUC(0-inf) [1, 6] was 1950 ng·h/mL and the half-life [1, 6] was 3.49 h. For the same compound, the Cmax [1, 6] was 282 ng/mL, the bioavailability ([1]; male, CD-1, mouse, plasma, po, 20 mg/kg, oral 20 mg/kg, suspension 1% Tween 80:1% carboxymethylcellulose in water, read-out: oral bioavailability (F)) was 40.3% and the concentration at 24 hr ([1]; male, CD-1, mouse, plasma, intravenous, 5 mg/kg, read-out: Clast) was 2.26 ng/mL. The C0 ([1]; male, CD-1, mouse, plasma, intravenous, 3 and 25 at 5 mg/kg) was 1600 ng/mL, the concentration at 8 hr ([1]; male, CD-1, mouse, plasma, oral 20 mg/kg, 20% DMA-40% PEG300-40% H2O, 8 hr post-dose, read-out: Clast) was 531 ng/mL and the “decrease of Cmax and AUC, suspension vs solution formulation” value ([1]; oral 20 mg/kg) was 6-7 fold. The AUCinf/D [1, 7] was 576 h·(ng/mL)/(mg/kg), the Cmax/D [1, 7] was 104 (ng/mL)/(mg/kg) and the tlast [1, 7] was 8 h. For the same compound, the T1/2 ([1]; oral 20 mg/kg, 20% DMA-40% PEG300-40% H2O, 20 mg/kg) was 5.6 h, the “oral bioavailability (F)” value ([1]; oral 20 mg/kg, suspension 1% Tween 80:1% carboxymethylcellulose in water, 20 mg/kg) was 40% and the “anti-seizure activity” value ([2]; 7 dpf larvae, PTZ) was “decrease seizures in a zebrafish model of epilepsy in a dose-dependent manner”. For the same compound, the minimal effective concentration ([2]; Danio rerio, 7 dpf larvae, 1 hr pre-treatment, 10 mM PTZ, read-out: Anti-seizure activity: lowest tested dose with significant difference vs PTZ-only group) was ≤ 5 µM and the inhibition in vivo at 2.5 µM ([2]; Danio rerio, 2.5 μM, read-out: reduction of PTZ-induced locomotor activity) was 45%.
